From patent publication US10472356B2, “Bicyclic ketone sulfonamide compounds” (AMGEN INC., priority 2015, dated 2019) come the findings set out here.

Format in all cases: cell-based
Experiment [1] concerns the target T1, human Nav1.7 (Homo sapiens, UniProt Q15858).
T1 construct: expressed in transfected cells; host or cells: HEK293
The experiment can be described thus: Nav 1.7 In Vitro PatchXpress (PX) Assay. To be noted: HEK 293 cells stably transfected with human Nav1.7; PatchXpress whole cell voltage clamp; partially inactivated state (holding potential yielding 20 to 50% inactivation); read-out: hNav1.7 PX IC50. In short, it runs like this: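 Percent inhibition of peak sodium current taken after 3 min exposure to one compound concentration, 3–5 cells each, with IC50 curve fits. Partially inactivated channels (20–50% inactivation at holding potential) in Nav1.7-HEK 293 cells, activated by 20 ms steps to −10 mV every 10 s.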

In experiment [2] the target is T1, human Nav1.7. The experiment can be described thus: Nav 1.7 IWQ In Vitro Assay (IonWorks Quattro). The note with it: HEK293 cells stably transfected with human Nav 1.7; IonWorks Quattro population patch-clamp; 26th pulse to −20 mV, 5 Hz; cells unclamped 5 to 8 minutes with compound; read-out: hNav1.7 IWQ IC50. The gist of the method: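 Population patch clamp on HEK293 cells stably expressing human Nav 1.7: held at −110 mV for three seconds, then 26 pulses of 150 msec to −20 mV at 5 Hz, before and after 5-8 min with one compound concentration. Percent inhibition from peak current at the 26th pulse.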
(In general: The patch-clamp technique gives a direct electrical read-out from membranes.)

The target in experiment [3] is T1, human Nav1.7. The experiment can be described thus: Nav 1.7 IWB In Vitro Assay (IonWorks Barracuda). The note with it: HEK293 cells stably transfected with human Nav 1.7; IonWorks Barracuda population patch-clamp; cells clamped to −20 mV for 4 minutes with compound; 26th pulse; read-out: hNav1.7 IWB IC50. The gist of the method: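 IC50 derived from concentration-response of percent block of the 26th-pulse peak inward current, compound vs none. Protocol: stable human Nav 1.7 HEK293 cells on automated population patch clamp, held at −110 mV, 5 Hz train of 150 ms steps to −20 mV, 4 min compound exposure depolarized at −20 mV, 3 s repolarization, train repeated.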

By IC50 is commonly meant the concentration needed to halve the response being measured.

T1 sequence (Q15858 whole entry): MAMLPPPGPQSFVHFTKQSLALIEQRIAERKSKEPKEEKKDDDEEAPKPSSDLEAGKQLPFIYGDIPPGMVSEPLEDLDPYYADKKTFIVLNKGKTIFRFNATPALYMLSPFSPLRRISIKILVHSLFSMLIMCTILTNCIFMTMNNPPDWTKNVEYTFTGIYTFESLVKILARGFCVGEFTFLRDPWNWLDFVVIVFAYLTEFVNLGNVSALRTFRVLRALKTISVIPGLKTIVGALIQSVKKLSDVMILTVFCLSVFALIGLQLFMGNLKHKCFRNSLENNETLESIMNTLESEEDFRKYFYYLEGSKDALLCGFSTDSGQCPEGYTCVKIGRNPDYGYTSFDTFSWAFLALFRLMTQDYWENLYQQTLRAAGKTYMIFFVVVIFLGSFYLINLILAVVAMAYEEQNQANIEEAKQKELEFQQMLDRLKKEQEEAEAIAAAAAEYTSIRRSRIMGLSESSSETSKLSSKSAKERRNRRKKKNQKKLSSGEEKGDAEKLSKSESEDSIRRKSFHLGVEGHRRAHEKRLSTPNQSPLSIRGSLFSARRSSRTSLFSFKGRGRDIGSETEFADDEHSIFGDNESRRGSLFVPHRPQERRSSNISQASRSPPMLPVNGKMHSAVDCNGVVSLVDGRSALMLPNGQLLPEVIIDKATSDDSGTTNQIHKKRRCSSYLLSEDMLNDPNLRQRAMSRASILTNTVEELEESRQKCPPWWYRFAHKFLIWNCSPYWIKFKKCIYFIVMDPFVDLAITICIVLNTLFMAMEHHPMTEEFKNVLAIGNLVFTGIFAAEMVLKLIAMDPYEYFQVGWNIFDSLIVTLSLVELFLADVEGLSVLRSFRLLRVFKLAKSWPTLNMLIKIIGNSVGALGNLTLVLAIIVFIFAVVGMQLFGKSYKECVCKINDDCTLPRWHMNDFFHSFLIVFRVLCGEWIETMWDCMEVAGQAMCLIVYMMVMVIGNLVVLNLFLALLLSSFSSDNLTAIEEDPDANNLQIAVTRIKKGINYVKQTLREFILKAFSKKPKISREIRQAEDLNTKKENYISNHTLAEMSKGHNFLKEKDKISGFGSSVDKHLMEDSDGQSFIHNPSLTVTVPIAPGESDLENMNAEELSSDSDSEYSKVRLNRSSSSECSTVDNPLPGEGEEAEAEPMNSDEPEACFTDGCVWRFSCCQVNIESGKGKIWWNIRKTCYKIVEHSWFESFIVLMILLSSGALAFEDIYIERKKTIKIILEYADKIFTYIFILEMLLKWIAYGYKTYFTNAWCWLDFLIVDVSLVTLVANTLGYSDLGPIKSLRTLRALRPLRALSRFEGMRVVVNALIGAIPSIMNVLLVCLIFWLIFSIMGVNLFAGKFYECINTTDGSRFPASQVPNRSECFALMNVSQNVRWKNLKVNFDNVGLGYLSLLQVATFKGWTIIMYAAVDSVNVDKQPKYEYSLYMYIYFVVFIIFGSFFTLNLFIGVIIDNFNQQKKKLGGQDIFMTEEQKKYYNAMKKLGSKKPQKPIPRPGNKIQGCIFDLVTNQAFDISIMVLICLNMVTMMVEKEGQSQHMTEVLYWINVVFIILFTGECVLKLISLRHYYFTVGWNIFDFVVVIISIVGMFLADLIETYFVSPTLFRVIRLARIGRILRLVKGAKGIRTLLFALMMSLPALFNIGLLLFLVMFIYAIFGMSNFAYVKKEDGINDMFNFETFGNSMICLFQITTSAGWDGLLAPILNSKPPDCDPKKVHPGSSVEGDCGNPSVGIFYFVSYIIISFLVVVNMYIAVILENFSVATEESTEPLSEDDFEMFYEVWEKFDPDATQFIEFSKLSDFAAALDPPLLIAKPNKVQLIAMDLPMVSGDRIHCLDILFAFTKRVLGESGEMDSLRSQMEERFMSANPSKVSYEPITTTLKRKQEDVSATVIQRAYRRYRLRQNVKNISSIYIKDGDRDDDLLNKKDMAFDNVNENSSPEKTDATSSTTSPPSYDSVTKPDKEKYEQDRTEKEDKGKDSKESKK

As for `COc1cc(-c2ccc(F)c(F)c2)c(F)cc1-n1c2c(ccc1=O)CN(S(=O)(=O)Nc1ccon1)CC2` (single isomer, unassigned) [Example 20-P, P-N-3-isoxazolyl-2-oxo-1-(2,3′,4′-trifluoro-5-methoxy-4-biphenylyl)-1,5,7,8-tetrahydro-1,6-naphthyridine-6(2H)-sulfonamide], the IC50 is 39.3 nM at human Nav1.7 [1], 3.6 nM on human Nav1.7 [2] and 11.5 nM on human Nav1.7 [3].
As for `COc1cc(-c2ccc(Cl)c(C)c2)c(F)cc1-n1c2c(ccc1=O)CN(S(=O)(=O)Nc1nccs1)CC2` (racemic) [Example 39, (Rac)-1-(4′-chloro-2-fluoro-5-methoxy-3′-methyl-4-biphenylyl)-2-oxo-N-1,3-thiazol-2-yl-1,5,7,8-tetrahydro-1,6-naphthyridine-6(2H)-sulfonamide], the figures for the IC50 at human Nav1.7 [1], on human Nav1.7 [2] and on human Nav1.7 [3] were 35.1 nM, 15.2 nM and 37.8 nM, respectively.
For `COc1cc(-c2cc(F)cc(Cl)c2)c(F)cc1-n1c2c(ccc1=O)CN(S(=O)(=O)Nc1ccnc(C)n1)CC2` (single isomer, unassigned) [Example 6-P, P-1-(3′-chloro-2,5′-difluoro-5-methoxy-4-biphenylyl)-N-(2-methyl-4-pyrimidinyl)-2-oxo-1,5,7,8-tetrahydro-1,6-naphthyridine-6(2H)-sulfonamide] the same measures were 269 nM, 25.4 nM and 64.8 nM.
Take `COc1cc(-c2cc(F)cc(F)c2)c(F)cc1-n1c2c(ccc1=O)CN(S(=O)(=O)Nc1cccc(F)n1)CC2` (single isomer, unassigned) [Example 14-P, P-N-(6-fluoro-2-pyridinyl)-2-oxo-1-(2,3′,5′-trifluoro-5-methoxy-4-biphenylyl)-1,5,7,8-tetrahydro-1,6-naphthyridine-6(2H)-sulfonamide]: the IC50 was 103 nM on human Nav1.7 [1], 26 nM on human Nav1.7 [2] and 12.4 nM at human Nav1.7 [3].
For `COc1cc(Cl)cc(-c2cc(OC)c(-n3c4c(ccc3=O)CN(S(=O)(=O)Nc3ccon3)CC4)cc2F)c1` [Example 89, P-1-(3′-chloro-2-fluoro-5,5′-dimethoxy-[1,1′-biphenyl]-4-yl)-N-(isoxazol-3-yl)-2-oxo-1,2,7,8-tetrahydro-1,6-naphthyridine-6(5H)-sulfonamide], the IC50 came to 19.9 nM on human Nav1.7 [1], 1.3 nM on human Nav1.7 [2] and 8.8 nM at human Nav1.7 [3].
Taken in the same sequence, the figures for `COc1cc(-c2cc(F)cc(Cl)c2)c(F)cc1-n1c2c(ccc1=O)CN(S(=O)(=O)Nc1cccc(F)n1)CC2` (racemic) [Example 13-(Rac), (Rac)-1-(3′-chloro-2,5′-difluoro-5-methoxy-4-biphenylyl)-N-(6-fluoro-2-pyridinyl)-2-oxo-1,5,7,8-tetrahydro-1,6-naphthyridine-6(2H)-sulfonamide] were 123 nM, 33.2 nM and 27.6 nM.
For `COc1cc(-c2cc(Cl)ccc2C)c(F)cc1-n1c2c(ccc1=O)CN(S(=O)(=O)Nc1ccon1)CC2` (single isomer, unassigned) [Example 9-P, P-1-(5′-chloro-2-fluoro-5-methoxy-2′-methyl-4-biphenylyl)-N-3-isoxazolyl-2-oxo-1,5,7,8-tetrahydro-1,6-naphthyridine-6(2H)-sulfonamide] the same measures were 18 nM, 2.1 nM and 3.1 nM.
In the case of `COc1cc(-c2cc(OC)c(-n3c4c(ccc3=O)CN(S(=O)(=O)Nc3ccon3)CC4)cc2F)ccc1C` (single isomer, unassigned) [Example 58-P, P-1-(2-fluoro-3′,5-dimethoxy-4′-methyl-4-biphenylyl)-N-3-isoxazolyl-2-oxo-1,5,7,8-tetrahydro-1,6-naphthyridine-6(2H)-sulfonamide], the IC50 is 107 nM at human Nav1.7 [1], 19.4 nM on human Nav1.7 [2] and 9.2 nM on human Nav1.7 [3].
`COc1cc(-c2cc(F)cc(Cl)c2)c(F)cc1-n1c2c(ccc1=O)CN(S(=O)(=O)Nc1ncns1)CC2` (single isomer, unassigned) [Example 5-P, P-1-(3′-chloro-2,5′-difluoro-5-methoxy-4-biphenylyl)-2-oxo-N-1,2,4-thiadiazol-5-yl-1,5,7,8-tetrahydro-1,6-naphthyridine-6(2H)-sulfonamide]: the IC50 at human Nav1.7 [1] amounted to 12.3 nM; at human Nav1.7 [2], 1.6 nM; on human Nav1.7 [3], 1.5 nM.
For the compound `COc1cc(-c2cc(F)cc(Cl)c2)c(F)cc1-n1c2c(ccc1=O)CN(S(=O)(=O)Nc1ccc(F)cn1)CC2` (single isomer, unassigned) [Example 12-P, P-1-(3′-chloro-2,5′-difluoro-5-methoxy-4-biphenylyl)-N-(5-fluoro-2-pyridinyl)-2-oxo-1,5,7,8-tetrahydro-1,6-naphthyridine-6(2H)-sulfonamide], the results for the IC50 on human Nav1.7 [1], at human Nav1.7 [2] and on human Nav1.7 [3] were 44.5 nM, 56.6 nM and 52.5 nM, respectively.
Taken in the same sequence, the figures for `COc1cc(-c2cc(OC)c(-n3c4c(ccc3=O)CN(S(=O)(=O)Nc3ccon3)CC4)cc2F)ccc1Cl` (racemic) [Example 15-(Rac), (Rac)-1-(4′-chloro-2-fluoro-3′,5-dimethoxy-4-biphenylyl)-N-3-isoxazolyl-2-oxo-1,5,7,8-tetrahydro-1,6-naphthyridine-6(2H)-sulfonamide] were 21.8 nM, 121 nM and 8.1 nM.
As for `COc1cc(-c2cccc(OC(F)(F)F)c2)c(F)cc1-n1c2c(ccc1=O)CN(S(=O)(=O)Nc1cccnn1)CC2` [Example 66, P-1-(2-fluoro-5-methoxy-3′-(trifluoromethoxy)-[1,1′-biphenyl]-4-yl)-2-oxo-N-(pyridazin-3-yl)-1,2,7,8-tetrahydro-1,6-naphthyridine-6(5H)-sulfonamide], the IC50 at human Nav1.7 [1] amounted to 37.1 nM; on human Nav1.7 [2], 2.3 nM; at human Nav1.7 [3] it was 3.8 nM.
In the case of `COc1cc(-c2cc(OC)c(-n3c4c(ccc3=O)CN(S(=O)(=O)Nc3cccnn3)CC4)cc2F)ccc1Cl` (single isomer, unassigned) [Example 2-M, M-1-(4′-chloro-2-fluoro-3′,5-dimethoxy-4-biphenylyl)-2-oxo-N-3-pyridazinyl-1,5,7,8-tetrahydro-1,6-naphthyridine-6(2H)-sulfonamide], the results for the IC50 at human Nav1.7 [1], at human Nav1.7 [2] and at human Nav1.7 [3] were 5530 nM, 255 nM and 132 nM, respectively.
Taken in the same sequence, the figures for `COc1cc(-c2cccc(OCC(F)(F)F)c2)c(F)cc1-n1c2c(ccc1=O)CN(S(=O)(=O)Nc1cccnn1)CC2` [Example 68, P-1-(2-fluoro-5-methoxy-3′-(2,2,2-trifluoroethoxy)-[1,1′-biphenyl]-4-yl)-2-oxo-N-(pyridazin-3-yl)-1,2,7,8-tetrahydro-1,6-naphthyridine-6(5H)-sulfonamide] were 74.2 nM, 2.4 nM and 5.3 nM.
For `COc1cc(-c2cc(F)cc(Cl)c2)c(F)cc1-n1c2c(ccc1=O)CN(S(=O)(=O)Nc1ncns1)CC2` (racemic) [5-(Rac), (Rac)-1-(3′-chloro-2,5′-difluoro-5-methoxy-4-biphenylyl)-2-oxo-N-1,2,4-thiadiazol-5-yl-1,5,7,8-tetrahydro-1,6-naphthyridine-6(2H)-sulfonamide], the IC50 is 54.6 nM at human Nav1.7 [1], 7.3 nM at human Nav1.7 [2] and 6.7 nM on human Nav1.7 [3].
On to `COc1cc(-c2cc(F)cc(Cl)c2)c(F)cc1-n1c2c(ccc1=O)CN(S(=O)(=O)Nc1cccnn1)CC2` (racemic) [Example 38-(Rac), (Rac)-1-(3′-chloro-2,5′-difluoro-5-methoxy-4-biphenylyl)-2-oxo-N-3-pyridazinyl-1,5,7,8-tetrahydro-1,6-naphthyridine-6(2H)-sulfonamide], for which the IC50 was determined as 87.8 nM on human Nav1.7 [1], 16.7 nM on human Nav1.7 [2] and 10.2 nM at human Nav1.7 [3].
As to `COc1cc(-c2cc(F)cc(Cl)c2)c(F)cc1-n1c2c(ccc1=O)CN(S(=O)(=O)Nc1ccon1)CC2` (single isomer, unassigned) [Example 18-P, P-1-(3′-chloro-2,5′-difluoro-5-methoxy-4-biphenylyl)-N-3-isoxazolyl-2-oxo-1,5,7,8-tetrahydro-1,6-naphthyridine-6(2H)-sulfonamide], the IC50 on human Nav1.7 [1] was 17.5 nM; on human Nav1.7 [2], 2.9 nM; at human Nav1.7 [3], 3.9 nM.
Taken in the same sequence, the figures for `COc1cc(-c2cc(F)cc(Cl)c2)c(F)cc1-n1c2c(ccc1=O)CN(S(=O)(=O)Nc1cccnn1)CC2` (single isomer, unassigned) [Example 38-P, P-1-(3′-chloro-2,5′-difluoro-5-methoxy-4-biphenylyl)-2-oxo-N-3-pyridazinyl-1,5,7,8-tetrahydro-1,6-naphthyridine-6(2H)-sulfonamide] were 56.1 nM, 6.7 nM and 10.9 nM.
Turning to `COc1cc(-c2cc(OC)c(-n3c4c(ccc3=O)CN(S(=O)(=O)Nc3ccon3)CC4)cc2F)ccc1C` (racemic) [Example 58-(Rac), (Rac)-1-(2-fluoro-3′,5-dimethoxy-4′-methyl-4-biphenylyl)-N-3-isoxazolyl-2-oxo-1,5,7,8-tetrahydro-1,6-naphthyridine-6(2H)-sulfonamide], the IC50 is 78 nM at human Nav1.7 [1], 12.3 nM on human Nav1.7 [2] and 24.1 nM on human Nav1.7 [3].
